ChEMBL document CHEMBL1130794, “Phthalimidomethyl as a drug pro-moiety. Probing its reactivity” (Bioorg Med Chem Lett, 1998)

Assay: Second-order rate constant for the alkaline hydrolysis was determined
Format: ADME

Which kHO does the source give for `Cc1ccc2c(c1)C(=O)N(COC(=O)c1ccccc1)C2=O` here?
Its kHO is 27.3 M⁻¹ s⁻¹.

Which kHO does the source give for `O=C(OCN1C(=O)c2ccccc2C1=O)c1ccccc1` here?
The kHO was 50.4 M⁻¹ s⁻¹.

With `COCN1C(=O)c2ccccc2C1=O` as the compound, how does the kHO read?
Its kHO is 35.3 M⁻¹ s⁻¹.

For `CN1C(=O)c2ccccc2C1=O`, which kHO is on record?
The kHO was 37.5 M⁻¹ s⁻¹.

For `O=C1c2ccccc2C(=O)N1CCl`, which kHO is on record?
Its kHO is 105.8 M⁻¹ s⁻¹.

With `O=C(OCN1C(=O)c2ccccc2C1=O)c1ccc(Cl)cc1` as the compound, how does the kHO read?
Its kHO is 56.7 M⁻¹ s⁻¹.

Which kHO does the source give for `COc1ccc(C(=O)OCN2C(=O)c3ccccc3C2=O)cc1` here?
Its kHO is 33.9 M⁻¹ s⁻¹.

For `O=C1c2ccccc2C(=O)N1CO[N+](=O)[O-]`, which kHO is on record?
The kHO was 79.7 M⁻¹ s⁻¹.

Which kHO does the source give for `O=C(OCN1C(=O)c2ccc([N+](=O)[O-])cc2C1=O)c1ccccc1` here?
The kHO was 559 M⁻¹ s⁻¹.

With `O=C(OCN1C(=O)c2ccccc2C1=O)c1ccc([N+](=O)[O-])cc1` as the compound, how does the kHO read?
The kHO was 76.8 M⁻¹ s⁻¹.

For `CC1(C)S[C@@H]2[C@H](NC(=O)Cc3ccccc3)C(=O)N2[C@H]1C(=O)OCN1C(=O)c2ccccc2C1=O`, which kHO is on record?
Its kHO is 65.6 M⁻¹ s⁻¹.
